{"source": "patent US8889411B2", "about": "“Modulation of stem and progenitor cell differentiation, assays, and uses thereof” (Anthrogenesis Corporation, priority 2002, dated 2014)", "key": {"[1]": {"tested_on": "Human Cord Blood MNC Cells", "assay": "FACS analysis of cryopreserved and thawed cord blood MNCs after 1 week of culture with cytokines", "assay_type": "cell-based", "details": "5 μg in 1.7 μl DMSO, average +/− SD of three wells", "experimental": "Cord blood MNCs that had been cryopreserved and thawed using standard methods were isolated by standard Ficoll separation method and cultured in 24 well-plate at 0.5×10^6 cells/ml in 20% FCS-IMDM with cytokines (1L6, KL and G-CSF 10 ng/ml each) in triplicates. The experimental groups were None (cytokines only), DMSO (1.7 μl), ACTIMID™ (5.0 μg in 1.7 μl DMSO), REVIMID™ (5 μg in 1.7 μl DMSO). The cultured cells were harvested and analyzed by FACS staining after 1 week of culture. The data are expressed as an average +/− SD from three independent wells."}, "[2]": {"tested_on": "allogenic CD3+ T cells stimulated by CD34+-derived DC cells", "assay": "T cell proliferation assay (Mixed Leucocyte Reaction)", "assay_type": "cell-based, human", "details": "compared to DMSO control", "experimental": "T cell proliferation assay: After 13 days of culture, CD34^+-derived DC cells were collected, and after treatment with mitomycin C (50 μg/ml, Sigma), used as stimulators cells for allogenic adult CD3^+ T cells purified from peripheral blood mononuclear cells (PBMCs) from healthy volunteers. CD3^+ T responder cells were used at a concentration of 5×10^4 cells/well. Stimulators cells were added in graded doses to the T cells in black 96-well flat bottom, clear bottom tissue culture plates for chemiluminescence detection. Cultures were performed in RPMI 1640 medium supplemented with 10% heat-inactivated FBS, glutamine and Penicillin-streptomycin. After 6 days of culture, cell proliferation was measured with the BrdU chemiluminescence assay (Roche, Nutley N.J.), following manufacturer instructions. Results are presented as the mean±SD obtained from triplicate cultures."}, "[3]": {"tested_on": "Purified human cord blood CD34+ cells", "assay": "Monocyte production: CD34/CD14 staining of cord blood CD34+ cells cultured 14 days with cytokines", "assay_type": "cell-based", "experimental": "Purified human cord blood CD34+ cells (greater than 90% CD34+) were cultured in 20% FCS IMDM medium supplemented with cytokines (IL3, IL6, G-CSF, KL and Epo) at 4×10^4 cells/ml for 14 days at 37° C. in a humidified 5% CO2 incubator. The experimental groups consisted of a group in which (i) no DMSO or chemical compounds were added (“None”), (ii) DMSO only, (iii) Thalidomide dissolved in DMSO, (iv) ACTIMID™ dissolved in DMSO, and (v) REVIMID™ dissolved in DMSO. Aliquots of cells were harvested and stained with CD34-PE conjugated monoclonal antibody and CD14-FITC conjugated monoclonal antibody."}, "[4]": {"tested_on": "cells derived from CD34+ progenitor cells", "assay": "Phagocytosis: FITC-dextran uptake (mannose receptor-mediated endocytosis)", "assay_type": "cell-based, human", "details": "compared to DMSO control", "experimental": "Phagocytosis: The endocytic activity of the cells was analyzed by measuring FITC-dextran uptake. Cells were incubated with 1 mg/ml dextran-FITC (Sigma) in complete medium at 37° C. for 1 hour and 4° C. for 1 hour as a negative control. Results presented are representative of two independent experiments."}, "[5]": {"tested_on": "Human Cord Blood CD34+ Cells", "assay": "FACS analysis of proliferation and differentiation of cord blood CD34+ cells cultured with IL3, G-CSF and Kit-ligand", "assay_type": "cell-based", "details": "for CD11b+ Cell Population / CD34+CD38+ Cell Population / CD34+CD38− Cell Population: 7 days", "experimental": "CB CD34+ cells were initiated at 4×10^4 cells/ml in a 24-well plate in 20% FCS IMDM (fetal calf serum/Iscove's Modified Dulbecco's Medium) supplemented with cytokines (1 L3, GCSF and Kit-ligand) (R&D Systems, Inc.). Thalidomide (Thal), ACTIMID™ or REVIMID™ were included in the culture at three different concentrations: 5 μg/ml, 1 μg/ml and 0.3 μg/ml. The same volumes of DMSO were used as controls. A negative control without, any compound was also used (indicated by “none” in FIGS. 3-7). Cells were cultured at 37° C. and 5% CO2 in a humidified incubator for 7 days. Cells were then harvested from each well.\nThe total cell number from each well was determined by counting in a CELL-DYN® 1700 (Abbott Diagnostics) and the expression of CXCR4, CD45, CD34, CD38, CD 1 lb and Gly-A expression was analyzed by FACS (fluorescence-activated cell sorting) staining (FIGS. 3-7).\nCB cells from two different donors (CB2276 and CB2417) were cultured, assayed and analyzed separately (Table 1)."}, "[6]": {"tested_on": "Murine Sca+Lin− hematopoietic progenitor cells", "assay": "Generation of murine dendritic cells from bone marrow Sca+Lin− progenitors, cell surface phenotype", "assay_type": "cell-based, mouse (C57BL/6)", "excerpt": "Mouse bone marrow from inbred C57BL/6 mice was obtained from Clonetics. Hematopoietic Sca+Lin− progenitors were enriched using SpinSep murine progenitor enrichment cocktail (StemCell Technologies) and cultured in Iscove's MDM with BIT 95000 (StemCell Technologies) in the presence of murine growth factors SCF, Flt3L, GM-CSF and M-CSF for 9 days, to promote expansion of Sca+ cells and a DC precursor phenotype and then in the presence of GM-CSF and TNF-α for 3 additional days to drive the cells to an immature DC phenotype. Enriched Sca+Lin− cells were cultured in the presence of DMSO (0.1%), ACTIMID™ at 10 μM or all-trans retinoic acid (ATRA) (ICN Biomedicals) at 10 μM from day 0. Compounds were added to cells at day 0 and day 9.\nAnalysis of Murine cell surface phenotype: Murine cells were processed for double staining (14 min at RT) at day 9 and day 12; using FITC and PE conjugated mAbs. Antibodies used were from BD Pharmingen: Sea (PE), CD11b (FITC), Gr-1 (FITC), CD86 (PE), CD14 (PE), CD80 (PE), I-A^b (PE), CD40 (PE) and CD32.1/16.1 (FITC) from Miltenyi. Fluorescence analysis was performed on a FACScan flow cytometer (Coulter) after acquisition of 10,000 events."}, "[7]": {"details": "10 μM, added at day 0 and day 9"}}, "data": [{"smiles": "Nc1cccc2c1C(=O)N(C1CCC(=O)NC1=O)C2=O", "note": "(centres unmarked) [ACTIMID™, 4-(Amino)-2-(2,6-dioxo(3-piperidyl))-isoindoline-1,3-dione]", "values": [{"measurement": "CD34(%)", "setting": "[1]", "value": "3.31 +/− 0.64%"}, {"measurement": "CD34+CD38−(%)", "setting": "[1]", "value": "1.70 +/− 0.22%"}, {"measurement": "CXCR4+CD45+(%)", "setting": "[1]", "value": "2.9 +/− 0.5%"}, {"measurement": "CXCR4+CD45−(%)", "setting": "[1]", "value": "4.27 +/− 0.23%"}, {"measurement": "Total CD34+ cells", "setting": "[1]", "value": "7800 +/− 2600"}, {"measurement": "Total cells (1 × 10^6)", "setting": "[1]", "value": "0.223 +/− 0.06 1 × 10^6"}, {"measurement": "capacity to stimulate the proliferation of T-cells", "setting": "[2]; compound from day 1 to day 12", "value": "reduced capacity"}, {"measurement": "capacity to stimulate the proliferation of T-cells", "setting": "[2]; compound from day 6 to day 12", "value": "comparable"}, {"measurement": "percentage of monocyte lineage cells", "setting": "[3]; 5 μg/ml, compared to control, FIG. 13", "value": "increase"}, {"measurement": "percentage of CD34+ cells of the total cells", "setting": "[3]; 14 days, IL3, IL6, G-CSF, KL and Epo, compound dissolved in DMSO", "value": 18.7, "unit": "%"}, {"measurement": "production of monocytes (CD14+ cells)", "setting": "[3]; 14 days, relative to DMSO-treated group", "value": "overcome"}, {"measurement": "phagocytic capacity at day 12", "setting": "[4]; compound from day 1 to day 12", "value": "strong decrease"}, {"measurement": "phagocytic capacity at day 12", "setting": "[4]; compound from day 6 to day 12", "value": "comparable"}, {"measurement": "up-regulation (increased proliferation) of CD34+ cells", "setting": "[5]; CB2276 and CB2417 cultures", "value": "up-regulation"}, {"measurement": "expression of CXCR4", "setting": "[5]; FACS analysis of surface proteins", "value": "inhibitory effect"}, {"measurement": "yield of cells", "setting": "[5]; IL-3, KL and G-CSF, compared with the DMSO control", "value": "slightly higher number of cells"}, {"measurement": "effect on the proliferation of CD34+ cells", "setting": "[5]; IL-3, KL and G-CSF, compared with the negative control (none)", "value": "do not have a significant effect"}, {"measurement": "CD11b+ Cell Population", "setting": "[5]; donor CB2276, 0.3 μg/ml", "value": 6.9, "unit": "%"}, {"measurement": "CD34+CD38+ Cell Population", "setting": "[5]; donor CB2276, 0.3 μg/ml", "value": 0.2}, {"measurement": "CD34+CD38− Cell Population", "setting": "[5]; donor CB2276, 0.3 μg/ml", "value": 5.9}, {"measurement": "CD11b+ Cell Population", "setting": "[5]; donor CB2276, 1 μg/ml", "value": 3.8, "unit": "%"}, {"measurement": "CD34+CD38+ Cell Population", "setting": "[5]; donor CB2276, 1 μg/ml", "value": 0.2}, {"measurement": "CD34+CD38− Cell Population", "setting": "[5]; donor CB2276, 1 μg/ml", "value": 15.0}, {"measurement": "CD11b+ Cell Population", "setting": "[5]; donor CB2276, 5 μg/ml", "value": 1.6, "unit": "%"}, {"measurement": "CD34+CD38+ Cell Population", "setting": "[5]; donor CB2276, 5 μg/ml", "value": 0.2}, {"measurement": "CD34+CD38− Cell Population", "setting": "[5]; donor CB2276, 5 μg/ml", "value": 17.3}, {"measurement": "CD11b+ Cell Population", "setting": "[5]; donor CB2417, 0.3 μg/ml", "value": 8.4, "unit": "%"}, {"measurement": "CD34+CD38+ Cell Population", "setting": "[5]; donor CB2417, 0.3 μg/ml", "value": 0.2}, {"measurement": "CD34+CD38− Cell Population", "setting": "[5]; donor CB2417, 0.3 μg/ml", "value": 5.9}, {"measurement": "CD11b+ Cell Population", "setting": "[5]; donor CB2417, 1 μg/ml", "value": 3.9, "unit": "%"}, {"measurement": "CD34+CD38+ Cell Population", "setting": "[5]; donor CB2417, 1 μg/ml", "value": 0.8}, {"measurement": "CD34+CD38− Cell Population", "setting": "[5]; donor CB2417, 1 μg/ml", "value": 12.0}, {"measurement": "CD11b+ Cell Population", "setting": "[5]; donor CB2417, 5 μg/ml", "value": 2.5, "unit": "%"}, {"measurement": "CD34+CD38+ Cell Population", "setting": "[5]; donor CB2417, 5 μg/ml", "value": 0.1}, {"measurement": "CD34+CD38− Cell Population", "setting": "[5]; donor CB2417, 5 μg/ml", "value": 14.7}, {"measurement": "CD38 status of the majority of CD34+ and CD34− cells", "setting": "[5]; treated cell populations", "value": "CD38−"}, {"measurement": "level of CD11b expression by mean immunofluorescence (MIF)", "setting": "[5]; treated cells", "value": "decreased"}, {"measurement": "cell surface marker expression by day 9", "setting": "[6]; 10 μM from day 0", "value": "no significant effect"}, {"measurement": "CD11b expression by day 12", "setting": "[6]; [7]", "value": "upregulation"}, {"measurement": "CD86 and bright I-A^b expression by day 12", "setting": "[6]; [7]", "value": "downregulation"}, {"measurement": "expression of CD40 and CD80", "setting": "[6]; 10 μM, not shown", "value": "no effects"}]}]}
